Test results as given in US6479435B1, “Diaryl ethers and processes for their preparation and herbicidal and desiccant compositions containing them” (ISK Americas Incorporated, priority 1997, dated 2002).

How the values were obtained:
Assay type in all cases: in vivo
[1] = system: soybean (Glycine max L., var. Pella 86, SOY); assay: Pre-emerge greenhouse test, crop damage rating; conditions: 14 days after application, rating scale 0-100
Source text: (§1) A standard greenhouse herbicide activity screening system was used to evaluate the herbicidal efficacy and crop safety of these test compounds. Six broadleaf weed species including redroot pigweed (Amaranthus retroflexus, AMARE), velvetleaf (Abutilon theophrasti, ABUTH), sicklepod (Cassia obtusifolia, CASOB), ivyleaf morningglory (Ipomoea hederacea, IPOHE), lambsquarters (Chenopodium album, CHEAL) and common ragweed (Ambrosia artemisiifolia L., AMBEL) were used as test species. Four grass weed species including green foxtail (Setaria viridis, SETVI), barnyardgrass (Echinochloa crusgalli, ECHCG), Johnsongrass (Sorghum halepense, SORHA), and large crabgrass (Digitaria sanguinalis, DIGSA) were also used. In addition, three crop species, field corn (Zea mays L., var. Dekalb 535, CORN), soybean (Glycine max L., var. Pella 86, SOY), and upland rice (Oryza sp., var.Tebonnet, RICE) were included.
(§2) All plants were grown in 10 cm square plastic pots which were filled with a sandy loam soil mix. For preemerge tests, seeds were planted one day prior to application of the test compounds. Immediately after application, test units of the pre-emerge applications were watered at the soil surface to incorporate the test materials. Subsequently, these test units were bottom-watered.
(§3) All test compounds were dissolved in acetone and applied to the test units in a volume of 187 l/ha. Test materials were applied at rates ranging from 125 g ai/ha to 1000 g ai/ha using a track sprayer equipped with a TJ8001E even flow flat fan spray nozzle. Plants were arranged on a shelf so that the top of the canopy (post-emerge) or top of the soil surface (pre-emerge) was 40-45 cm below the nozzle. Pressurized air was used to force the test solution through the nozzle as it was mechanically advanced (via electrically driven chain drive) over the top of all test plants/pots. This application simulates a typical commercial field herbicide application.
(§4) At 14 days after application of the test materials, phytotoxicity ratings were recorded. A rating scale of 0-100 was used as previously described in Research Methods in Weed Science, 2nd edition, B. Truelove, Ed., Southern Weed Science Society, Auburn University, Auburn, Ala., 1977. Briefly, “0” corresponds to no damage and “100” corresponds to complete death of all plants in the test unit. This scale was used both to determine efficacy against weed species and damage to crop species. Herbicide activity data for various compounds of this invention, which are shown by compound number in Tables 1-9, are shown in Tables 13 and 14.

[2] = system: green foxtail (Setaria viridis, SETVI); assay: Pre-emerge greenhouse herbicide test, phytotoxicity rating; conditions: 14 days after application, rating scale 0-100
Source text: as §1, §2, §3, §4

[3] = system: sicklepod (Cassia obtusifolia, CASOB); assay: as above; conditions: 14 days after application, rating scale 0-100
Source text: as §1, §2, §3, §4

[4] = system: lambsquarters (Chenopodium album, CHEAL); assay: as above; conditions: 14 days after application, rating scale 0-100
Source text: as §1, §2, §3, §4

[5] = system: redroot pigweed (Amaranthus retroflexus, AMARE); assay: as above; conditions: 14 days after application, rating scale 0-100
Source text: as §1, §2, §3, §4

[6] = system: velvetleaf (Abutilon theophrasti, ABUTH); assay: as above; conditions: 14 days after application, rating scale 0-100
Source text: as §1, §2, §3, §4

[7] = system: Johnsongrass (Sorghum halepense, SORHA); assay: as above; conditions: 14 days after application, rating scale 0-100
Source text: as §1, §2, §3, §4

[8] = system: barnyardgrass (Echinochloa crusgalli, ECHCG); assay: as above; conditions: 14 days after application, rating scale 0-100
Source text: as §1, §2, §3, §4

[9] = system: ivyleaf morningglory (Ipomoea hederacea, IPOHE); assay: as above; conditions: 14 days after application, rating scale 0-100
Source text: as §1, §2, §3, §4

[10] = system: large crabgrass (Digitaria sanguinalis, DIGSA); assay: as above; conditions: 14 days after application, rating scale 0-100
Source text: as §1, §2, §3, §4

[11] = system: field corn (Zea mays L., var. Dekalb 535, CORN); assay: Pre-emerge greenhouse test, crop damage rating; conditions: 14 days after application, rating scale 0-100
Source text: as §1, §2, §3, §4

[12] = system: upland rice (Oryza sp., var.Tebonnet, RICE); assay: Pre-emerge greenhouse test, crop damage rating; conditions: 14 days after application, rating scale 0-100
Source text: as §1, §2, §3, §4

[13] = system: field corn (Zea mays L., var. Dekalb 535, CORN); assay: Post-emerge greenhouse test, crop damage rating; conditions: 14 days after application
Source text: as §1, §3
(§5) In the post-emerge test, a commercial non-ionic surfactant was also included (0.25% v/v) to enhance wetting of the leaf surfaces Qf target plants at rates ranging from 63 g ai/ha to 1000 g ai/ha. For post-emerge tests, seeds were planted 8-21 days prior to the test to allow emergence and good foliage development prior to application of the test substances. At the time of the post-emerge application, plants of all species were usually at the 2-3 leaf stage of development. Post-emerge test units were always bottom-watered.
as §4

[14] = system: upland rice (Oryza sp., var.Tebonnet, RICE); assay: Post-emerge greenhouse test, crop damage rating; conditions: 14 days after application
Source text: as §1, §3, §5, §4

[15] = system: green foxtail (Setaria viridis, SETVI); assay: Post-emerge greenhouse herbicide test, phytotoxicity rating; conditions: 14 days after application
Source text: as §1, §3, §5, §4

[16] = system: sicklepod (Cassia obtusifolia, CASOB); assay: as above; conditions: 14 days after application
Source text: as §1, §3, §5, §4

[17] = system: lambsquarters (Chenopodium album, CHEAL); assay: as above; conditions: 14 days after application
Source text: as §1, §3, §5, §4

[18] = system: redroot pigweed (Amaranthus retroflexus, AMARE); assay: as above; conditions: 14 days after application
Source text: as §1, §3, §5, §4

[19] = system: velvetleaf (Abutilon theophrasti, ABUTH); assay: as above; conditions: 14 days after application
Source text: as §1, §3, §5, §4

[20] = system: Johnsongrass (Sorghum halepense, SORHA); assay: as above; conditions: 14 days after application
Source text: as §1, §3, §5, §4

[21] = system: barnyardgrass (Echinochloa crusgalli, ECHCG); assay: as above; conditions: 14 days after application
Source text: as §1, §3, §5, §4

[22] = system: ivyleaf morningglory (Ipomoea hederacea, IPOHE); assay: as above; conditions: 14 days after application
Source text: as §1, §3, §5, §4

[23] = system: large crabgrass (Digitaria sanguinalis, DIGSA); assay: as above; conditions: 14 days after application
Source text: as §1, §3, §5, §4

[24] = system: soybean (Glycine max L., var. Pella 86, SOY); assay: Post-emerge greenhouse test, crop damage rating; conditions: 14 days after application
Source text: as §1, §3, §5, §4

CS(=O)(=O)Nc1ccc(Oc2cc(-n3c(=O)cc4n(c3=O)CCC4)c(F)cc2Cl)cc1 [Compound 5-5]
crop damage rating SOY ([1]; 500 g ai/ha): 10 | phytotoxicity rating SETVI ([2]; 500 g ai/ha): 0 | phytotoxicity rating CASOB ([3]; 500 g ai/ha): 0 | phytotoxicity rating CHEAL ([4]; 500 g ai/ha): 100 | phytotoxicity rating AMARE ([5]; 500 g ai/ha): 95 | phytotoxicity rating ABUTH ([6]; 500 g ai/ha): 50 | phytotoxicity rating SORHA ([7]; 500 g ai/ha): 0 | phytotoxicity rating ECHCG ([8]; 500 g ai/ha): 0 | phytotoxicity rating IPOHE ([9]; 500 g ai/ha): 0 | phytotoxicity rating DIGSA ([10]; 500 g ai/ha): 0 | crop damage rating CORN ([11]; 500 g ai/ha): 0 | crop damage rating RICE ([12]; 500 g ai/ha): 0 | CORN crop damage rating (0-100) ([13]; 500 g al/ha): 0 | RICE crop damage rating (0-100) ([14]; 500 g al/ha): 0 | SETVI phytotoxicity rating (0-100) ([15]; 500 g al/ha): 0 | CASOB phytotoxicity rating (0-100) ([16]; 500 g al/ha): 0 | CHEAL phytotoxicity rating (0-100) ([17]; 500 g al/ha): 0 | AMARE phytotoxicity rating (0-100) ([18]; 500 g al/ha): 0 | ABUTH phytotoxicity rating (0-100) ([19]; 500 g al/ha): 0 | SORHA phytotoxicity rating (0-100) ([20]; 500 g al/ha): 0 | ECHCG phytotoxicity rating (0-100) ([21]; 500 g al/ha): 0 | IPOHE phytotoxicity rating (0-100) ([22]; 500 g al/ha): 0 | DIGSA phytotoxicity rating (0-100) ([23]; 500 g al/ha): 0 | SOY crop damage rating (0-100) ([24]; 500 g al/ha): 0

O=c1cc2n(c(=O)n1-c1cc(Oc3ncccc3C(F)(F)F)c(Cl)cc1F)CCC2 [Compound 5-10, 2-[4-chloro-2-fluoro-5-(3-trifluoromethyl-2-pyridyloxy)phenyl]-6,7-dihydropyrrolo[1,2-c]pyrimidine-1,3(2H,5H)dione]
phytotoxicity rating SETVI ([2]; 1000 g ai/ha): 100 | phytotoxicity rating CASOB ([3]; 1000 g ai/ha): 0 | phytotoxicity rating CHEAL ([4]; 1000 g ai/ha): 100 | phytotoxicity rating AMARE ([5]; 1000 g ai/ha): 100 | phytotoxicity rating ABUTH ([6]; 1000 g ai/ha): 100 | phytotoxicity rating SORHA ([7]; 1000 g ai/ha): 100 | phytotoxicity rating ECHCG ([8]; 1000 g ai/ha): 100 | phytotoxicity rating IPOHE ([9]; 1000 g ai/ha): 100 | phytotoxicity rating DIGSA ([10]; 1000 g ai/ha): 100 | SETVI phytotoxicity rating (0-100) ([15]; 1000 g al/ha): 20 | CASOB phytotoxicity rating (0-100) ([16]; 1000 g al/ha): 30 | CHEAL phytotoxicity rating (0-100) ([17]; 1000 g al/ha): 80 | AMARE phytotoxicity rating (0-100) ([18]; 1000 g al/ha): 80 | ABUTH phytotoxicity rating (0-100) ([19]; 1000 g al/ha): 100 | SORHA phytotoxicity rating (0-100) ([20]; 1000 g al/ha): 70 | ECHCG phytotoxicity rating (0-100) ([21]; 1000 g al/ha): 80 | IPOHE phytotoxicity rating (0-100) ([22]; 1000 g al/ha): 70 | DIGSA phytotoxicity rating (0-100) ([23]; 1000 g al/ha): 10

N#Cc1ccc(Oc2cc(-n3c(=O)cc4n(c3=O)CCC4)c(F)cc2Cl)nc1 [Compound 5-11]
crop damage rating SOY ([1]; 1000 g ai/ha): 60 | phytotoxicity rating SETVI ([2]; 1000 g ai/ha): 95 | phytotoxicity rating CASOB ([3]; 1000 g ai/ha): 30 | phytotoxicity rating CHEAL ([4]; 1000 g ai/ha): 100 | phytotoxicity rating AMARE ([5]; 1000 g ai/ha): 80 | phytotoxicity rating SORHA ([7]; 1000 g ai/ha): 99 | phytotoxicity rating ECHCG ([8]; 1000 g ai/ha): 95 | phytotoxicity rating IPOHE ([9]; 1000 g ai/ha): 80 | phytotoxicity rating DIGSA ([10]; 1000 g ai/ha): 90 | crop damage rating CORN ([11]; 1000 g ai/ha): 30 | crop damage rating RICE ([12]; 1000 g ai/ha): 80 | CORN crop damage rating (0-100) ([13]; 1000 g al/ha): 15 | RICE crop damage rating (0-100) ([14]; 1000 g al/ha): 25 | SETVI phytotoxicity rating (0-100) ([15]; 1000 g al/ha): 10 | CASOB phytotoxicity rating (0-100) ([16]; 1000 g al/ha): 10 | CHEAL phytotoxicity rating (0-100) ([17]; 1000 g al/ha): 90 | AMARE phytotoxicity rating (0-100) ([18]; 1000 g al/ha): 70 | ABUTH phytotoxicity rating (0-100) ([19]; 1000 g al/ha): 100 | SORHA phytotoxicity rating (0-100) ([20]; 1000 g al/ha): 20 | ECHCG phytotoxicity rating (0-100) ([21]; 1000 g al/ha): 20 | IPOHE phytotoxicity rating (0-100) ([22]; 1000 g al/ha): 90 | DIGSA phytotoxicity rating (0-100) ([23]; 1000 g al/ha): 0 | SOY crop damage rating (0-100) ([24]; 1000 g al/ha): 40
